Common to all, as to test: Growth inhibition on agar plates, crystalline material swabbed on
Type in all cases: cell-based

One assay concerns Escherichia coli. The conditions noted are these: agar plate containing Escherichia coli. The source says: (§1) A chalky, white substance presumptively identified as monosodium urate monohydrate crystals was extracted from the subcutaneous area of an elbow of a patient presenting with a soft tissue gouty tophus at the elbow. […] The crystalline substance was swabbed onto agar plates containing Staphylococcus aureus, Staphylococcus pyogenes, Neisseria meningitis, Neisseria gonorrhorea, Escherichia coli, Methicillin resistant Staphylococcus aureus, Haemophilus influenza or Serratia Marcessens. The crystalline material inhibited the growth of the microorganisms as indicated below in Table 1.

For a further assay, the system named is Haemophilus influenza. The note with it: agar plate containing Haemophilus influenza.
Source text: as §1

Assay [1] deals with Methicillin resistant Staphylococcus aureus. The conditions noted are these: agar plate containing Methicillin resistant Staphylococcus aureus.
Source text: as §1

Another assay deals with Neisseria gonorrhorea. The conditions noted are these: agar plate containing Neisseria gonorrhorea.
Source text: as §1

In a further assay the test system is Neisseria meningitis. The conditions noted are these: agar plate containing Neisseria meningitis.
Source text: as §1

For the next assay, the system named is Serratia Marcessens. The note with it: agar plate containing Serratia Marcessens.
Source text: as §1

Another assay has as its system Staphylococcus aureus.
Source text: as §1

A further assay relates to Staphylococcus pyogenes. The conditions noted are these: agar plate containing Staphylococcus pyogenes.
Source text: as §1

As to `O.O=c1[n-]c2c(=O)[nH]c(=O)[nH]c2[nH]1.[Na+]` [Monosodium Urate Monohydrate, monosodium urate monohydrate], the “Antimicrobial activity (growth inhibition)” value is given as “Did not inhibit growth” in the assay on Escherichia coli; “Did not inhibit growth” with Haemophilus influenza; “Did not inhibit growth” in assay [1]; “Inhibited growth” in the assay on Neisseria gonorrhorea; “Inhibited growth” in the assay on Neisseria meningitis; “Did not inhibit growth” in the assay with Serratia Marcessens. Besides, the “Antimicrobial activity (growth inhibition)” value in the assay with Staphylococcus aureus (agar plate containing Staphylococcus aureus) and in the assay on Staphylococcus pyogenes was “Inhibited growth” throughout. Further, in the assay with Staphylococcus aureus (against S. aureus), the bacteriocidal activity entry is given as “exhibited bacteriocidal activity”.

These data come from patent US7875620B2, “Methods of treating microbial infections” (Piper Medical, Inc., priority 2005, dated 2011).
